Laboratory results reported in patent US9326513B2, “Fungicidal compositions” (Syngenta Participations AG, priority 2011, dated 2016).
Like-named read-outs stand apart in the source and are kept apart here.

Tests used:
Gaeumannomvces graminis = Gaeumannomvces graminis (take-all of cereals), PDB microtiter plate, visual after 48 hrs; format: cell-based; settings: solo; for inhibition at 0.015625 ppm: rate 0.015625 ppm
Source text: In the following Tables ‘Activity (%)’ means the assessed experimental activity (% disease control in this test when compared to untreated control leaf disks under the same conditions, which show extensive disease development) and “P” is the expected value calculated (expected) activity according to the COLBY formula (see above). The column headed ‘S?’ indicates whether or not synergy was observed, with ‘y’ meaning that synergy was observed. Gaeumannomvces graminis (Take-all of Cereals) Mycelial fragments of the fungus from cryogenic storage were directly mixed into nutrient broth (PDB potato dextrose broth). After placing a (DMSO) solution of the test compounds into a microtiter plate (96-well format) the nutrient broth containing the fungal spores was added.

Botrytis cinerea = Botrytis cinerea (gray mould), PDB microtiter plate, visual after 72 hrs; format: cell-based; settings: for inhibition at 0.00390625 ppm: rate 0.00390625 ppm; for inhibition at 0.0078125 ppm: rate 0.0078125 ppm; for inhibition at 0.015625 ppm: rate 0.015625 ppm; for inhibition at 0.03125 ppm: rate 0.03125 ppm; for inhibition at 0.03125 ppm / inhibition at 0.0625 ppm: read-out: Activity (%); for inhibition at 0.0625 ppm: rate 0.0625 ppm; for inhibition at 0.25 ppm: rate 0.25 ppm; for inhibition at 0.125 ppm: rate 0.125 ppm
Pyrenophora teres = Pyrenophora teres / barley / leaf disc preventative (net blotch); format: in vivo; settings: foliar, compared to untreated control leaf disks, read-out: disease control
Source text: Pyrenophora teres/Barley/Leaf Disc Preventative (Net Blotch) Barley leaf segments cv. Hasso were placed on agar in a multiwell plate (24-well format) and sprayed with the formulated test compound diluted in water. The leaf segments were inoculated with a spore suspension of the fungus 2 days after application.

Pythium ultimum = Pythium ultimum (damping off), PDB microtiter plate, visual after 48 hrs; format: cell-based; settings: Globisporangium ultimum, solo
[1] = Botrytis cinerea, alone, rate 0.5 ppm
[2] = Botrytis cinerea, alone, rate 1 ppm
[3] = Botrytis cinerea, alone, rate 2 ppm
[4] = Botrytis cinerea, single compound

| Structure (SMILES) | inhibition at 0.015625 ppm (Gaeumannomvces graminis) [%] | inhibition at 0.00390625 ppm (Botrytis cinerea; Botrytis cinerea, alone) [%] | inhibition at 0.0078125 ppm (Botrytis cinerea; Botrytis cinerea, alone) [%] | inhibition at 0.015625 ppm (Botrytis cinerea; Botrytis cinerea, alone) [%] | inhibition at 0.03125 ppm (Botrytis cinerea; Botrytis cinerea, alone) [%] | inhibition at 0.0625 ppm (Botrytis cinerea; Botrytis cinerea, alone) [%] | inhibition at 0.25 ppm (Botrytis cinerea; Botrytis cinerea, alone) [%] | inhibition at 0.5 ppm (Botrytis cinerea; [1]) [%] | inhibition at 1 ppm (Botrytis cinerea; [2]) [%] | inhibition at 2 ppm (Botrytis cinerea; [3]) [%] | inhibition at 0.125 ppm (Botrytis cinerea; Botrytis cinerea, alone) [%] | also measured |
| --- | --- | --- | --- | --- | --- | --- | --- | --- | --- | --- | --- | --- |
| CCN(C)/C=N/c1cc(Br)c(OC2Cc3ccccc3C2)nc1C [Q.062] | 0 | 0 | 0 | 0 | 0 | 0 | 0 | 0 | 0 | 0 |  | inhibition at 0.00390625 ppm (Gaeumannomvces graminis; rate 0.00390625 ppm): 0%; inhibition at 0.0078125 ppm (Gaeumannomvces graminis; rate 0.0078125 ppm): 0%; inhibition at 0.1258 ppm (Botrytis cinerea; Botrytis cinerea, alone, rate 0.1258 ppm): 0%; inhibition at 0.015625 ppm (Botrytis cinerea; [4]): 0%; inhibition at 0.03125 ppm (Botrytis cinerea; [4]): 0%; inhibition at 0.0625 ppm (Botrytis cinerea; [4]): 0%; inhibition at 0.125 ppm (Botrytis cinerea; [4]): 0%; inhibition at 0.25 ppm (Botrytis cinerea; [4]): 0%; inhibition at 0.5 ppm (Botrytis cinerea; Botrytis cinerea, single compound, rate 0.5 ppm): 0%; inhibition at 1 ppm (Botrytis cinerea; Botrytis cinerea, single compound, rate 1 ppm): 0%; inhibition at 2 ppm (Botrytis cinerea; Botrytis cinerea, single compound, rate 2 ppm): 0%; pest or weed control at 200 ppm (Pyrenophora teres): ≥ 50% |
| CCN(C)/C=N/c1cc(Br)c(OC(C)c2cc(F)cc(F)c2)nc1C (stereo not shown) [Q.113] | 0 | 0 | 0 | 0 | 0 | 0 | 0 | 0 | 0 | 0 | 0 | inhibition at 0.03125 ppm (Gaeumannomvces graminis; rate 0.03125 ppm): 0%; inhibition at 0.0625 ppm (Gaeumannomvces graminis; rate 0.0625 ppm): 0%; inhibition at 0.125 ppm (Gaeumannomvces graminis; rate 0.125 ppm): 0%; inhibition at 0.25 ppm (Gaeumannomvces graminis; rate 0.25 ppm): 0% |
| CCN(C)/C=N/c1cc(Br)c(O[C@H]2CC[C@@H](C(C)C)CC2)nc1C [Q.135] |  | 0 | 0 | 0 | 0 | 0 | 0 |  |  | 70 | 0 | inhibition at 0.0078125 ppm (Pythium ultimum; rate 0.0078125 ppm): 0%; inhibition at 0.015625 ppm (Pythium ultimum; rate 0.015625 ppm): 0%; inhibition at 0.03125 ppm (Pythium ultimum; rate 0.03125 ppm): 0%; inhibition at 0.0625 ppm (Pythium ultimum; rate 0.0625 ppm): 0%; Activity (%) (Botrytis cinerea; alone, rate 0.5 ppm): 20%; Activity (%) (Botrytis cinerea; alone, rate 1 ppm): 20%; Activity (%) (Botrytis cinerea; alone, rate 2 ppm): 50% |
